One may read the Emax as the greatest response seen or fitted, relative to the assay's reference. Usually IC50 stands for the concentration that inhibits the measured activity by half. Low readings indicate higher potency, high ones lower potency.

Results on two compounds are retold here after ChEMBL document CHEMBL1133400, “Synthesis and pharmacology of a novel pyrrolo[2,1,5-cd] indolizine (NNC 45-0095), a high affinity non-steroidal agonist for the estrogen receptor” (Bioorg Med Chem Lett, 2000).

Test [1] relates to Ishikawa. Nature of the test: Percentp stimulation of alkaline phosphate activity in Ishikawa human endometrial adenocarcinoma cells relative to Moxestrol. It is filed as functional.
The target of test [2] is Estrogen receptor (Homo sapiens, UniProt Q92731+P03372). Briefly: Binding affinity for estrogen receptor of rabbit uterine […] muscle tissue. Format: protein assay, Oryctolagus cuniculus. The following applies: target entry is the homologue from another species.
The subject of test [3] is Ishikawa. Briefly: Stimulation of endometrial activity in Ishikawa human endometrial adenocarcinoma cells. It is filed as functional, cell-based.
Test [4] has as its target Estrogen receptor (Mus musculus) (UniProt O08537+P19785). Briefly: Percent maximal relative agonism for uterotrophic activity in immature mouse model. Format: functional.
For test [5], the target named is Estrogen receptor (Mus musculus, UniProt O08537+P19785). Briefly: Uterotrophic activity in immature mouse. It is filed as functional, tissue-based, Uterus.

Sequence of Estrogen receptor (Mus musculus) (O08537 whole entry, looked up): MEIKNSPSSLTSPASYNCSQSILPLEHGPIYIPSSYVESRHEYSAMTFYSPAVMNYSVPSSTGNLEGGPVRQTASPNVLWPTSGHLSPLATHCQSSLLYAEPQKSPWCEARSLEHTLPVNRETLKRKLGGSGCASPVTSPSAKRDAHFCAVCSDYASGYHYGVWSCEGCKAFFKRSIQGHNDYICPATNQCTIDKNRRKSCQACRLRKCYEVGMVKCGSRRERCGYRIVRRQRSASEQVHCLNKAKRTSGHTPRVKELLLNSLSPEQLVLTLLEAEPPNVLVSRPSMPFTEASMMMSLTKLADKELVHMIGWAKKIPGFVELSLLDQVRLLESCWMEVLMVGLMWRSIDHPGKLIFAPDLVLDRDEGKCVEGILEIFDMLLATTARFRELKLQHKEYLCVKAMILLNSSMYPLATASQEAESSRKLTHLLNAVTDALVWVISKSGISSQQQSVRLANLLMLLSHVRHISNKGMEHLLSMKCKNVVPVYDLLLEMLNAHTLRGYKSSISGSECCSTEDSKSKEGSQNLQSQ
Sequence of Estrogen receptor (Mus musculus) (P19785 whole entry, looked up): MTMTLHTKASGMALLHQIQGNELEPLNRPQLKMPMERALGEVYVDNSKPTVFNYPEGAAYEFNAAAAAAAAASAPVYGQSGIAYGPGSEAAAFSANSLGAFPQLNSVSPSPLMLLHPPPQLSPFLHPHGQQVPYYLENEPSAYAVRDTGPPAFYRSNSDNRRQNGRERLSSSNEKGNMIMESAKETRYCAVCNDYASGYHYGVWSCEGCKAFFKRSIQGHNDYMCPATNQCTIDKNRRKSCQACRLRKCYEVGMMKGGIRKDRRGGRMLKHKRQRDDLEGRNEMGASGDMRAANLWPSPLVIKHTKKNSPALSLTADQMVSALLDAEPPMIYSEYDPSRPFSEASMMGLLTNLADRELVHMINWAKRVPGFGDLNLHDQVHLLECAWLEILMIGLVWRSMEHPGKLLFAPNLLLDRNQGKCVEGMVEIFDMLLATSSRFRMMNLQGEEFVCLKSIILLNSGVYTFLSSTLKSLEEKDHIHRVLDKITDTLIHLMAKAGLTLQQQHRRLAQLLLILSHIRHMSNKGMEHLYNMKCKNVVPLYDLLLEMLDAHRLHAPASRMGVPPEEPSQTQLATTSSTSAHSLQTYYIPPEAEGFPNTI

On to `C#C[C@]1(O)CC[C@H]2C3CCc4cc(O)ccc4[C@H]3[C@@H](OC)C[C@@]21C` (single isomer, unassigned) [MOXESTROL], for which the Emax in test [1] amounted to 100%. The compound also displayed an IC50 in test [2] of 2.5 nM. For the same compound, in test [3], the EC50 amounted to 0.1 nM.

Regarding `CCc1c(-c2ccc(O)cc2)c2ccc3cccc1n32`, the Activity in test [4] amounted to 76%. Further, the maximal effect (Emax) in test [1] is 105%. The EC50 in test [5] came out at 0.96 nM/g; in test [3], 13 nM.
